# Assay results published in patent USRE47302E1 (ONYX THERAPEUTICS INC., priority 2013, dated 2019).
# Read-outs that look alike come from different tables or passages of the source.
# Columns and labels:
# [1] = biological target: T1, proteasome subunit β5 (beta5) (Homo sapiens, UniProt P28074); assay: Proteasome active-site ELISA (ProCISE), beta5, MOLT-4 lysate; type: biochemical; details: MOLT4 lysate, human, 1 h continuous treatment, 25° C.
# T1 construct: Lysate from the human acute lymphoblastic leukemia cell line, MOLT-4; endogenous in cells; host or cells: MOLT-4
# Procedure: (§1) Test compounds were serially diluted in DMSO at 100× concentration, then diluted to 10× in aqueous hypotonic lysis buffer. Lysate from the human acute lymphoblastic leukemia cell line, MOLT-4, was treated for 1 hour at 25° C. with compound at a final 1× concentration. […] Following, lysate was denatured in guanidine hydrochloride, and subunits bound to probe were isolated with streptavidin-conjugated sepharose beads. Individual subunits (e.g., β5, LMP7, LMP2, MECL-1) were probed with subunit-specific primary antibodies, followed by HRP-conjugated secondary antibodies. A chemiluminescent substrate was used to generate signal associated with HRP binding, which was detected on a plate reader. Luminescent signal was normalized to protein content, then, percent activity calculated relative to DMSO-treated controls to generate IC50 curves.
# [2] = biological target: T2, immunoproteasome subunit LMP7 (Homo sapiens, UniProt P28062); assay: Proteasome active-site ELISA (ProCISE), LMP7, MOLT-4 lysate; type: biochemical
# T2 construct: Lysate from the human acute lymphoblastic leukemia cell line, MOLT-4; endogenous in cells; host or cells: MOLT-4
# Procedure: as §1
# [3] = Solubility pH 7; details: pH 7, aqueous buffer
# [4] = read-out: ProCISE beta5 MOLT4 lysate Hu 1 h CONT: IC50
# [5] = read-out: ProCISE LMP7 MOLT4 lysate Hu 1 h CONT: IC50, 1 h continuous treatment, 25° C.
# [6] = MOLT4 lysate, 1 h continuous treatment, 25° C.
SMILES,"IC50 [1, 4] [µM]","IC50 [2, 5] [µM]",solubility [3] [mg/mL],IC50 [1] [µM],"IC50 [2, 6] [µM]"
"Cc1ccc(C[C@H](NC(=O)[C@H](C)NC(=O)CN2CCOCC2)C(=O)N[C@@H](CC2=CCCC2)C(=O)[C@@]2(C)CO2)cc1O [Compound C-1129, (S)-N-((S)-3-(cyclopent-1-en-1-yl)-1-((R)-2-methyloxiran-2-yl)-1-oxopropan-2-yl)-3-(3-hydroxy-4-methylphenyl)-2-((S)-2-(2-morpholinoacetamido)propanamido) propanamide]",,,1.76,0.793,0.0764
"COc1ccc(C[C@H](NC(=O)[C@H](C)NC(=O)CN2CCOCC2)C(=O)N[C@@H](C[C@H]2CCCO2)C(=O)[C@@]2(C)CO2)cc1 [Compound C-1017, (S)-3-(4-methoxyphenyl)-N-((S)-1-((R)-2-methyloxhan-2-yl)-1-oxo-3-((R)-tetrahydrofuran-2-yl)propan-2-yl)-2-((S)-2-(2-morpholinoacetamido)propanamido)propanamide]",,,11.7,21.7,1.09
"COc1ccc(C[C@H](NC(=O)[C@H](C)NC(=O)CN2CCOCC2)C(=O)N[C@@H](CC2CCC2)C(=O)[C@@]2(C)CO2)cc1 [Compound C-1004, (S)-N-((S)-3-cyclobutyl-1-((R)-2-methyloxiran-2-yl)-1-oxopropan-2-yl)-3-(4-methoxyphenyl)-2-((S)-2-(2-morpholinoacetamido)propanamido)propanamide]",,,2.5,1.87,0.541
"COc1ccc(C[C@H](NC(=O)[C@H](C)NC(=O)CN2CCC(O)CC2)C(=O)N[C@@H](CC2=CCCC2)C(=O)[C@@]2(C)CO2)cc1 [Compound C-1118, (S)-N-((S)-3-(Cyclopent-1-en-1-yl)-1-((R)-2-methyloxiran-2-yl)-1-oxopropan-2-yl)-2-((S)-2-(2-(4-hydroxypiperidin-1-yl)acetamido)propanamido)-3-(4-methoxyphenyl)propanamide]",,,6.26,0.407,0.0438
"C[C@@H](NC(=O)[C@H]1CC[C@H](O)CC1)C(=O)N[C@@H](Cc1ccc(C#N)cc1)C(=O)N[C@@H](CC1CCCC1)C(=O)[C@@]1(C)CO1 [Compound C-1103, (1r,4R)-N-((R)-1-(((S)-3-(4-cyanophenyl)-1-(((S)-3-cyclopentyl-1-((R)-2-methyloxiran-2-yl)-1-oxopropan-2-yl)amino)-1-oxopropan-2-yl)amino)-1-oxopropan-2-yl)-4-hydroxycyclohexanecarboxamide]",,,2.15,1.96,0.0387
"C[C@H](NC(=O)CN1CCOCC1)C(=O)N[C@@H](Cc1ccc2c(c1)OCO2)C(=O)N[C@@H](CC1CCCC1)C(=O)[C@H]1CO1 [Compound C-1060, (S)-3-(benzo[d][1,3]dioxol-5-yl)-N-((S)-3-cyclopentyl-1-((R)-oxiran-2-yl)-1-oxopropan-2-yl)-2-((S)-2-(2-morpholinoacetamido)propanamido)propanamide]",,,1.38,0.423,0.0124
"COc1ccc(C[C@H](NC(=O)[C@H](CO)NC(=O)CN2CCOCC2)C(=O)N[C@@H](CC2=CCCCC2)C(=O)[C@@]2(C)CO2)cc1 [Compound C-1104, (S)-N-((S)-3-(cyclohex-1-en-1-yl)-1-((R)-2-methyloxiran-2-yl)-1-oxopropan-2-yl)-2-((S)-3-hydroxy-2-(2-morpholinoacetamido)propanamido)-3-(4-methoxyphenyl)propanamide]",,,3.27,2.21,0.0724
"C[C@H](NC(=O)CN1CCOCC1)C(=O)N[C@@H](Cc1ccc2[nH]ncc2c1)C(=O)N[C@@H](CC1CCCC1)C(=O)[C@@]1(C)CO1 [Compound C-1070, (S)-N-((S)-3-cyclopentyl-1-((R)-2-methyloxiran-2-yl)-1-oxopropan-2-yl)-3-(1H-indazol-5-yl)-2-((S)-2-(2-morpholinoacetamido)propanamido)propanamide]",,,2.14,1.81,0.209
"COc1ccc(C[C@H](NC(=O)[C@H](C)NC(=O)CN2CCOCC2)C(=O)N[C@@H](CC2=CCCCC2)C(=O)[C@@]2(C)CO2)cc1 [Compound C-1019, (S)-N-((S)-3-(cyclohex-1-en-1-yl)-1-((R)-2-methyloxiran-2-yl)-1-oxopropan-2-yl)-3-(4-methoxyphenyl)-2-((S)-2-(2-morpholinoacetamido)propanamido)propanamide]",,,1.76,9.33,
"COc1ccc([C@@H](O)[C@H](NC(=O)[C@@H](C)NC(=O)[C@H]2CC[C@H](O)CC2)C(=O)N[C@@H](CC2=CCCC2)C(=O)[C@@]2(C)CO2)cc1 [Compound C-1080, (1r,4R)-N-((R)-1-(((2S,3R)-1-(((S)-3-(cyclopent-1-en-1-yl)-1-((R)-2-methyloxiran-2-yl)-1-oxopropan-2-yl)amino)-3-hydroxy-3-(4-methoxyphenyl)-1-oxopropan-2-yl)amino)-1-oxopropan-2-yl)-4-hydroxycyclohexanecarboxamide]",,,,1.18,0.0252
"C[C@H](NC(=O)CN1CCOCC1)C(=O)N[C@@H](CCc1ccccc1)C(=O)N[C@@H](CC1=CCCC1)C(=O)[C@@]1(C)CO1 [Compound C-1128, (S)-N-((S)-3-(Cyclopent-1-en-1-yl)-1-((R)-2-methyloxiran-2-yl)-1-oxopropan-2-yl)-2-((S)-2-(2-morpholinoacetamido)propanamido)-4-phenylbutanamide]",,,1.37,,
"C[C@H](NC(=O)CN1CCOCC1)C(=O)N[C@@H](Cc1cccc(O)c1)C(=O)N[C@@H](CC1CCCC1)C(=O)[C@@]1(C)CO1 [Compound C-1114, (S)-N-((S)-3-cyclopentyl-1-((R)-2-methyloxiran-2-yl)-1-oxopropan-2-yl)-3-(3-hydroxyphenyl)-2-((S)-2-(2-morpholinoacetamido)propanamido)propanamide]",,,0.793,,
"COc1ccc(C[C@H](NC(=O)[C@@H](C)NC(=O)[C@H]2CC[C@H](O)CC2)C(=O)N[C@@H](CC2CCCC2)C(=O)[C@@]2(C)CO2)cc1 [Compound C-1064, (1r,4R)-N-((R)-1-(((S)-1-(((S)-3-cyclopentyl-1-((R)-2-methyloxiran-2-yl)-1-oxopropan-2-yl)amino)-3-(4-methoxyphenyl)-1-oxopropan-2-yl)amino)-1-oxopropan-2-yl)-4-hydroxycyclohexanecarboxamide]",,,,4.05,0.0605

# Results, then the compound that gave them:
"IC50 [1, 4] [µM]","IC50 [2, 5] [µM]",solubility [3] [mg/mL],IC50 [1] [µM],"IC50 [2, 6] [µM]",SMILES
0.581,0.0821,2.67,,,COc1ccc(C[C@H](NC(=O)[C@H](C)NC(=O)[C@H]2CCCN2C)C(=O)N[C@@H](Cc2ccccc2)C(=O)[C@@]2(C)CO2)cc1 [Compound C-1164]
,,0.979,6.63,0.262,"COc1ccc(C[C@H](NC(=O)[C@@H](C)NC(=O)[C@H]2CC[C@H](O)CC2)C(=O)N[C@@H](CC2CCC2)C(=O)[C@@]2(C)CO2)cc1 [Compound C-1090, (1r,4R)-N-((R)-1-(((S)-1-(((S)-3-cyclobutyl-1-((R)-2-methyloxiran-2-yl)-1-oxopropan-2-yl)amino)-3-(4-methoxyphenyl)-1-oxopropan-2-yl)amino)-1-oxopropan-2-yl)-4-hydroxycyclohexanecarboxamide]"
,,0.985,8.97,0.0576,"COc1ccc(C[C@H](NC(=O)[C@@H](C)NC(=O)[C@H]2CC[C@H](O)CC2)C(=O)N[C@@H](CC2=CCCCC2)C(=O)[C@@]2(C)CO2)cc1 [Compound C-1089, (1r,4R)-N-((R)-1-(((S)-1-(((S)-3-(cyclohex-1-en-1-yl)-1-((R)-2-methyloxiran-2-yl)-1-oxopropan-2-yl)amino)-3-(4-methoxyphenyl)-1-oxopropan-2-yl)amino)-1-oxopropan-2-yl)-4-hydroxycyclohexanecarboxamide]"
0.526,0.119,1.3,,,COc1ccc(C[C@H](NC(=O)[C@H](C)NC(=O)CC2COC2)C(=O)N[C@@H](Cc2ccccc2)C(=O)[C@@]2(C)CO2)cc1 [Compound C-1179]
0.175,0.0508,,,,COc1ccc(C[C@H](NC(=O)[C@@H](COCc2ccccc2)NC(=O)CN2CCOCC2)C(=O)N[C@@H](Cc2ccccc2)C(=O)[C@@]2(C)CO2)cc1 [Compound C-1156]
,,0.213,,,COc1ccc(C[C@H](NC(=O)[C@H](C)NC(=O)C2COC2)C(=O)N[C@@H](Cc2ccccc2)C(=O)[C@@]2(C)CO2)cc1 [Compound C-1168]
,,1.83,,,"COc1ccc(C[C@H](NC(=O)[C@H](C)NC(=O)CN2CCOCC2)C(=O)N[C@@H](CC2=CC(C)CC2)C(=O)[C@@]2(C)CO2)cc1 (stereo partly drawn) [Compound C-1122, (2S)-3-(4-methoxyphenyl)-N-((2S)-3-(3-methylcyclopent-1-en-1-yl)-1-((R)-2-methyloxiran-2-yl)-1-oxopropan-2-yl)-2-((S)-2-(2-morpholinoacetamido)propanamido)propanamide]"
,,0.873,,,"COc1ccc(C[C@H](NC(=O)[C@@H](C)NC(=O)[C@@H]2CC[C@H](O)C2)C(=O)N[C@@H](CC2CCCC2)C(=O)[C@@]2(C)CO2)cc1 [Compound C-1078, (1R,3S)-N-((R)-1-(((S)-1-(((S)-3-cyclopentyl-1-((R)-2-methyloxiran-2-yl)-1-oxopropan-2-yl)amino)-3-(4-methoxyphenyl)-1-oxopropan-2-yl)amino)-1-oxopropan-2-yl)-3-hydroxycyclopentanecarboxamide]"
